# Reference: PubChem BioAssay AID330 (DTP/NCI, 2004)
# Several values for one entry are separate records, joined by “and”; a condition that tells them apart may be missing. Equal entries are not always repeated. Inconclusive results and toxic doses are left out.
# Tested on: P388 leukemia ip, CD2F1 mice, survival T/C
# Experiment: NCI In Vivo Anticancer Drug Screen. Data for tumor model P388 Leukemia (intraperitoneal) in CD2F1 (CDF1) mice
# Settings: endpoint: median survival time, higher = longer survival
# How it was run: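 Mice carrying the transplanted tumor received test compound or vehicle. Survival was recorded in each group, and the value is the treated-group measurement divided by that of the vehicle-treated control group.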
# [1] = dose: 50.0 mg/kg/injection, schedule: Q01DX005 (ip), vehicle: saline
# [2] = dose: 100.0 mg/kg/injection, schedule: Q01DX005 (ip), vehicle: saline
# [3] = dose: 50.0 mg/kg/injection, schedule: Q01DX005 (ip), vehicle: saline with Tween-80
# [4] = dose: 50.0 mg/kg/injection, schedule: Q01DX005 (ip), vehicle: Klucel (hydroxypropylcellulose) (HPC)
# [5] = dose: 100.0 mg/kg/injection, schedule: Q01DX005 (ip), vehicle: Klucel (hydroxypropylcellulose) (HPC)
# [6] = dose: 200.0 mg/kg/injection, schedule: Q01DX005 (ip), vehicle: Klucel (hydroxypropylcellulose) (HPC)
# [7] = dose: 50.0 mg/kg/injection, schedule: Q01DX009 (ip), vehicle: saline with Tween-80
# [8] = dose: 100.0 mg/kg/injection, schedule: Q01DX009 (ip), vehicle: saline with Tween-80
# [9] = dose: 200.0 mg/kg/injection, schedule: Q01DX009 (ip), vehicle: saline with Tween-80
# [10] = dose: 50.0 mg/kg/injection, schedule: Q01DX009 (ip), vehicle: saline
# [11] = dose: 200.0 mg/kg/injection, schedule: Q04DX003 (ip), vehicle: Klucel (hydroxypropylcellulose) (HPC)
compound,measurement,setting,value
Cc1nnc2sc3c(Cl)c4nn5c(C)nnc5sc4c(Cl)c3nn12,T/C,"dose: 0.78 mg/kg/injection, schedule: Q01DX009 (ip), vehicle: saline with Tween-80",94 % of control
same,T/C,"dose: 1.56 mg/kg/injection, schedule: Q01DX009 (ip), vehicle: saline with Tween-80",97 % of control
same,T/C,"dose: 3.13 mg/kg/injection, schedule: Q01DX009 (ip), vehicle: saline with Tween-80",92 % of control
C[n+]1c(C[n+]2ccccc2)ccc2ccccc21,T/C,[1],105 % of control
same,T/C,[2],106 % of control
CC1=N[C@@H](N2CCOCC2)[C@H](N2CCOCC2)N1c1ccccc1,T/C,[1],100 % of control
same,T/C,[2],107 % of control
same,T/C,"dose: 200.0 mg/kg/injection, schedule: Q01DX005 (ip), vehicle: saline",102 % of control
O=C(O)/C=C(/CC(=O)O)c1ccc(O)cc1,T/C,"dose: 60.0 mg/kg/injection, schedule: Q01DX005 (ip), vehicle: Klucel (hydroxypropylcellulose) (HPC)",97 % of control
same,T/C,"dose: 120.0 mg/kg/injection, schedule: Q01DX005 (ip), vehicle: Klucel (hydroxypropylcellulose) (HPC)",102 % of control
same,T/C,"dose: 240.0 mg/kg/injection, schedule: Q01DX005 (ip), vehicle: Klucel (hydroxypropylcellulose) (HPC)",100 % of control
C=COC(=O)C(C)(CC)CC(C)C (stereo unspecified),T/C,"dose: 50.0 mg/kg/injection, schedule: Q01DX009 (ip), vehicle: other",115 % of control
same,T/C,"dose: 100.0 mg/kg/injection, schedule: Q01DX009 (ip), vehicle: other",108 % of control
COC1=CC(=O)C(C(c2ccc(OC)cc2)N2CCOCC2)=CC1=O (stereo unspecified),T/C,"dose: 12.5 mg/kg/injection, schedule: Q01DX005 (ip), vehicle: saline with Tween-80",109 % of control
same,T/C,"dose: 25.0 mg/kg/injection, schedule: Q01DX005 (ip), vehicle: saline with Tween-80",109 % of control
same,T/C,[3],101 % of control and 109 % of control
CCOC(=O)N1C(C)C2C=CC1C(S(=O)(=O)c1ccccc1)C2 (stereo unspecified),T/C,[4],97 % of control
same,T/C,[5],102 % of control
same,T/C,[6],97 % of control
Nc1c[n+]([O-])ccn1,T/C,"dose: 100.0 mg/kg/injection, schedule: Q04DX003 (ip), vehicle: saline",101 % of control
same,T/C,"dose: 200.0 mg/kg/injection, schedule: Q04DX003 (ip), vehicle: saline",98 % of control
same,T/C,"dose: 400.0 mg/kg/injection, schedule: Q04DX003 (ip), vehicle: saline",93 % of control
O=C(OC12CCCCC1C1(CCCCC1)N=N2)c1ccccc1 (stereo unspecified),T/C,"dose: 12.5 mg/kg/injection, schedule: Q01DX009 (ip), vehicle: saline with Tween-80",105 % of control
same,T/C,"dose: 25.0 mg/kg/injection, schedule: Q01DX009 (ip), vehicle: saline with Tween-80",99 % of control
same,T/C,[7],111 % of control
same,T/C,[8],99 % of control
same,T/C,[9],97 % of control
Nc1ncnc2nc(Br)[nH]c12,T/C,[4],111 % of control
same,T/C,[5],95 % of control
same,T/C,[6],106 % of control
CCCCCCCCCC[N+]1([O-])CCOCC1,T/C,[10],100 % of control
same,T/C,"dose: 100.0 mg/kg/injection, schedule: Q01DX009 (ip), vehicle: saline",89 % of control
c1cc[c]([Pb]([S]c2nc3ccccc3[nH]2)([c]2ccccc2)[c]2ccccc2)cc1,T/C,"dose: 0.37 mg/kg/injection, schedule: Q01DX009 (ip), vehicle: Klucel (hydroxypropylcellulose) (HPC)",102 % of control
same,T/C,"dose: 0.75 mg/kg/injection, schedule: Q01DX009 (ip), vehicle: Klucel (hydroxypropylcellulose) (HPC)",121 % of control
same,T/C,"dose: 1.5 mg/kg/injection, schedule: Q01DX009 (ip), vehicle: Klucel (hydroxypropylcellulose) (HPC)",102 % of control
same,T/C,"dose: 3.0 mg/kg/injection, schedule: Q01DX009 (ip), vehicle: Klucel (hydroxypropylcellulose) (HPC)",100 % of control
Cc1ccc(S(=O)(=O)OC2CCN(C(=O)OCc3ccccc3)CC2)cc1,T/C,[7],95 % of control
same,T/C,[8],98 % of control
same,T/C,[9],98 % of control
O=C(O)CS(=O)(=O)CC(=O)O,T/C,[10],95 % of control
C/C(=N\O)C1(C)CC=CCC1CO (stereo unspecified),T/C,[8],95 % of control
same,T/C,[9],100 % of control
same,T/C,"dose: 400.0 mg/kg/injection, schedule: Q01DX009 (ip), vehicle: saline with Tween-80",100 % of control
O=C1NC2CCC1CC2,T/C,"dose: 50.0 mg/kg/injection, schedule: Q01DX005 (ip), vehicle: suspension in saline",101 % of control
same,T/C,"dose: 100.0 mg/kg/injection, schedule: Q01DX005 (ip), vehicle: suspension in saline",97 % of control
same,T/C,"dose: 200.0 mg/kg/injection, schedule: Q01DX005 (ip), vehicle: suspension in saline",102 % of control
COc1ccc(N2CCN(CC(O)COc3cc4c(c5c3CCCC5)CCCC4)CC2)cc1 (stereo unspecified),T/C,"dose: 100.0 mg/kg/injection, schedule: Q04DX003 (ip), vehicle: Klucel (hydroxypropylcellulose) (HPC)",104 % of control
same,T/C,[11],94 % of control
same,T/C,"dose: 400.0 mg/kg/injection, schedule: Q04DX003 (ip), vehicle: Klucel (hydroxypropylcellulose) (HPC)",108 % of control
C[CH2][Sn]([CH2]C)([n]1c(C)nc2ccccc21)[n]1c(C)nc2ccccc21,T/C,"dose: 1.56 mg/kg/injection, schedule: Q01DX005 (ip), vehicle: Klucel (hydroxypropylcellulose) (HPC)",110 % of control
same,T/C,"dose: 3.12 mg/kg/injection, schedule: Q01DX005 (ip), vehicle: Klucel (hydroxypropylcellulose) (HPC)",122 % of control
same,T/C,"dose: 6.25 mg/kg/injection, schedule: Q01DX005 (ip), vehicle: Klucel (hydroxypropylcellulose) (HPC)",122 % of control
CC(Cl)CN(Cc1cc(O)c(CN(CC(C)Cl)CC(C)Cl)cc1O)CC(C)Cl (stereo unspecified),T/C,[11],118 % of control
Cc1ccc(S(=O)(=O)CC(=O)CC(=O)C(C#N)c2cccc(Cl)c2)cc1 (stereo unspecified),T/C,[3],100 % of control
same,T/C,"dose: 100.0 mg/kg/injection, schedule: Q01DX005 (ip), vehicle: saline with Tween-80",99 % of control
same,T/C,"dose: 200.0 mg/kg/injection, schedule: Q01DX005 (ip), vehicle: saline with Tween-80",107 % of control
